Source: ChEMBL document CHEMBL1150977, “A quantitative analysis of kinase inhibitor selectivity” (Nat Biotechnol, 2008)
pKd: −log10 of the molar value.

How the values were obtained:
[1] = molecular target: Serine/threonine-protein kinase PAK 2 (Homo sapiens, UniProt Q13177)
[2] = molecular target: Serine/threonine-protein kinase 26 (Homo sapiens, UniProt Q9P289)
[3] = molecular target: Mitogen-activated protein kinase 11 (Homo sapiens, UniProt Q15759)
[4] = molecular target: Casein kinase I isoform gamma-1 (Homo sapiens, UniProt Q9HCP0)
[5] = molecular target: T1, Serine/threonine-protein kinase DCLK2 (Homo sapiens, UniProt Q8N568)
T1 sequence (Q8N568 whole entry): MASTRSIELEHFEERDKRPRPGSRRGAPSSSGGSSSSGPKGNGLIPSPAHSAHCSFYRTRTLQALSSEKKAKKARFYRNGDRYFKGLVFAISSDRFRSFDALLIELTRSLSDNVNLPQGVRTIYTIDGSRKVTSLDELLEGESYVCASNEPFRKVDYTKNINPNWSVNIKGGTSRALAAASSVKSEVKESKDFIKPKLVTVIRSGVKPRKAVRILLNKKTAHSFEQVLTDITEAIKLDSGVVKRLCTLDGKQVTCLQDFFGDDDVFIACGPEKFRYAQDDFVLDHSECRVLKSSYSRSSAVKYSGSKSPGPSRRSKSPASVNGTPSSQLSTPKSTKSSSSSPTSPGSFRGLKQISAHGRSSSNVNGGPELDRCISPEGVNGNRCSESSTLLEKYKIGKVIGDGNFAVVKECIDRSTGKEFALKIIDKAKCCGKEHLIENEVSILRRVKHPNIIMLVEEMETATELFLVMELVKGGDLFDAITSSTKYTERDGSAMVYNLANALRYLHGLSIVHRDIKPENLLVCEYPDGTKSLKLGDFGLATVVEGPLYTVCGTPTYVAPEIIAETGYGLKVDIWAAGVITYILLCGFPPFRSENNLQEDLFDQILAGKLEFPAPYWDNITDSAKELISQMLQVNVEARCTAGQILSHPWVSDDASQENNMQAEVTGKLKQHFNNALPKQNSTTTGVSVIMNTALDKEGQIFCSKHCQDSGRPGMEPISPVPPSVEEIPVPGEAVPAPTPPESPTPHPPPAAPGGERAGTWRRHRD

[6] = molecular target: T2, Phosphorylase b kinase gamma catalytic chain, liver/testis isoform (Homo sapiens, UniProt P15735)
T2 sequence (P15735 whole entry): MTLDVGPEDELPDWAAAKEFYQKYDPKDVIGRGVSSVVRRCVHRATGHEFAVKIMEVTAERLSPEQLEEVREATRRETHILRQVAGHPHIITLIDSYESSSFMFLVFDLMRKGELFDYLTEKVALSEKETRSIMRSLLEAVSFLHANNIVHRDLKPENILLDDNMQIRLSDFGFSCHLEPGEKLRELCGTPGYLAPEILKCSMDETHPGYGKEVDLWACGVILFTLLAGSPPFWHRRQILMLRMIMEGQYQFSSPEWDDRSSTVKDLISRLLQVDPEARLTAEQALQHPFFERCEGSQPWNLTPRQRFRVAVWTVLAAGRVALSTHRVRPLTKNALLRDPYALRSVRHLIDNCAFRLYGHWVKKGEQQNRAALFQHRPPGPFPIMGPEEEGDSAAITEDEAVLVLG

[7] = molecular target: Serine/threonine-protein kinase pim-1 (Homo sapiens, UniProt P11309)
Ephrin type-A receptor 7 = Ephrin type-A receptor 7 (Homo sapiens, UniProt Q15375)
[8] = molecular target: MAP/microtubule affinity-regulating kinase 3 (Homo sapiens, UniProt P27448)
[9] = molecular target: Mitogen-activated protein kinase 8 (Homo sapiens, UniProt P45983)
[10] = molecular target: Serine/threonine-protein kinase 10 (Homo sapiens, UniProt O94804)
[11] = molecular target: Tyrosine-protein kinase ABL1 (Homo sapiens, UniProt P00519, Y253F)
[12] = molecular target: Tyrosine-protein kinase ABL1 (Homo sapiens, UniProt P00519, M351T)
[13] = molecular target: T3, Serine/threonine-protein kinase 17B (Homo sapiens, UniProt O94768)
T3 sequence (O94768 whole entry): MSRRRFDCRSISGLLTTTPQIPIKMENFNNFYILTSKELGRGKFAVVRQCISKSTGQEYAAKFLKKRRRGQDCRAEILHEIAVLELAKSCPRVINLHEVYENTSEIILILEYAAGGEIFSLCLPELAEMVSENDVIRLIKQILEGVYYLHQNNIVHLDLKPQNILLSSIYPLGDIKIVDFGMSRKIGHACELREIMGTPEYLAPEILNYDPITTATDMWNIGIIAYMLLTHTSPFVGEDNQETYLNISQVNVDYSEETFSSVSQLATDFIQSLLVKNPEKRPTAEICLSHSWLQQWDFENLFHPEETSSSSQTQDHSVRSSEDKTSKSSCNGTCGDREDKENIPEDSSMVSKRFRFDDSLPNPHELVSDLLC

[14] = molecular target: Tyrosine-protein kinase ABL1 (Homo sapiens, UniProt P00519, Q252H)

Casein kinase I isoform gamma-1, sequence (Q9HCP0 whole entry, canonical isoform): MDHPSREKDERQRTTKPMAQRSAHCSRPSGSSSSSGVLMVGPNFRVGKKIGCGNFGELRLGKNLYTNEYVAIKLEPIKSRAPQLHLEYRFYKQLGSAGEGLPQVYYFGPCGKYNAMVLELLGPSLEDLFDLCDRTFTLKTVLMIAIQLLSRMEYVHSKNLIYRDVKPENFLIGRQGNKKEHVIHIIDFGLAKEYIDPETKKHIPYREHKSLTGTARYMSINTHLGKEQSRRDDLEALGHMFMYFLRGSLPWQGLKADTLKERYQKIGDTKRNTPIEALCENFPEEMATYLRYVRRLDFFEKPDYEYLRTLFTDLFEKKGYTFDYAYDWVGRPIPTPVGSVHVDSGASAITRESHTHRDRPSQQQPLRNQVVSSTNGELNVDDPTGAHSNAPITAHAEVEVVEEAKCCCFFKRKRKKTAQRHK
Serine/threonine-protein kinase PAK 2, sequence (Q13177 whole entry): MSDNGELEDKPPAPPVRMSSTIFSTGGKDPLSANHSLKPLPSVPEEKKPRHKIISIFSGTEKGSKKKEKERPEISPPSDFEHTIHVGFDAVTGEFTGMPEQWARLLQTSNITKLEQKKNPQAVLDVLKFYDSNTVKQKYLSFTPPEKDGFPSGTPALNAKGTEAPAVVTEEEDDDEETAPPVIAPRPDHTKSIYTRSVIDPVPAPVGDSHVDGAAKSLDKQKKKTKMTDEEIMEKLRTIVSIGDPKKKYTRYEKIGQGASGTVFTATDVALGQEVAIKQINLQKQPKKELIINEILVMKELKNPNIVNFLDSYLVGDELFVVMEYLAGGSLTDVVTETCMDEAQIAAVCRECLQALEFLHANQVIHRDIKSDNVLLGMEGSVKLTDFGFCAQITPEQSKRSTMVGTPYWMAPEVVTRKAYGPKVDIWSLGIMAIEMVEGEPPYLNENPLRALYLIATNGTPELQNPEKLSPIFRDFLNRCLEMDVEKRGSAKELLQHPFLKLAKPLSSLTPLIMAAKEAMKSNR
Mitogen-activated protein kinase 11, sequence (Q15759 whole entry, canonical isoform): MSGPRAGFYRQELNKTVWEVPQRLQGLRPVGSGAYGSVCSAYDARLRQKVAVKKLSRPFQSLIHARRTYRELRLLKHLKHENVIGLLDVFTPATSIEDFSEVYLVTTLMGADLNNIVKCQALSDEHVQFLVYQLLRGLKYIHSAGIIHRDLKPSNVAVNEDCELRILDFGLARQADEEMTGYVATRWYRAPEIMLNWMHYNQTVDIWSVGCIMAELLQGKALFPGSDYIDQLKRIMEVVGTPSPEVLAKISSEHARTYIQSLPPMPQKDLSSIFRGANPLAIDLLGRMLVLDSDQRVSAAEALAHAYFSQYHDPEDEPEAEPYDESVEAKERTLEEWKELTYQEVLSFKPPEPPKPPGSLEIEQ
Mitogen-activated protein kinase 8, sequence (P45983 whole entry): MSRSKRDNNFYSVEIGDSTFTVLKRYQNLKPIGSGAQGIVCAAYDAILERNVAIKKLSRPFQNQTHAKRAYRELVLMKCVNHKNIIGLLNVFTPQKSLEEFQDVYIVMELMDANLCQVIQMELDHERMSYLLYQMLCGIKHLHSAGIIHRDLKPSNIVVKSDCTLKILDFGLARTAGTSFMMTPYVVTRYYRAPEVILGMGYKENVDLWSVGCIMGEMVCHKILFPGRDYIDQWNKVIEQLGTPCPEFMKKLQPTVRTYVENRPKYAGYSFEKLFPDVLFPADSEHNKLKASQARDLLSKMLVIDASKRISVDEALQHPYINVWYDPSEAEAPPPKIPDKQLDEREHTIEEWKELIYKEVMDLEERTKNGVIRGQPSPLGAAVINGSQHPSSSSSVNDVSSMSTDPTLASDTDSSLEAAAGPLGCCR
Serine/threonine-protein kinase pim-1, sequence (P11309 whole entry): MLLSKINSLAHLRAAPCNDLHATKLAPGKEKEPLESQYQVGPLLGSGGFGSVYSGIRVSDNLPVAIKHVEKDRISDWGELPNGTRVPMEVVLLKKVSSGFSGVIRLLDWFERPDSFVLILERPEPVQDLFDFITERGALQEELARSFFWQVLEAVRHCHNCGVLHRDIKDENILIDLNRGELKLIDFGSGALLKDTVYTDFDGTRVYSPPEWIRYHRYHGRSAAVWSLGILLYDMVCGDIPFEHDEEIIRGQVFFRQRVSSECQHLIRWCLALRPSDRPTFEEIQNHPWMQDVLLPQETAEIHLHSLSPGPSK
Ephrin type-A receptor 7, sequence (Q15375 whole entry): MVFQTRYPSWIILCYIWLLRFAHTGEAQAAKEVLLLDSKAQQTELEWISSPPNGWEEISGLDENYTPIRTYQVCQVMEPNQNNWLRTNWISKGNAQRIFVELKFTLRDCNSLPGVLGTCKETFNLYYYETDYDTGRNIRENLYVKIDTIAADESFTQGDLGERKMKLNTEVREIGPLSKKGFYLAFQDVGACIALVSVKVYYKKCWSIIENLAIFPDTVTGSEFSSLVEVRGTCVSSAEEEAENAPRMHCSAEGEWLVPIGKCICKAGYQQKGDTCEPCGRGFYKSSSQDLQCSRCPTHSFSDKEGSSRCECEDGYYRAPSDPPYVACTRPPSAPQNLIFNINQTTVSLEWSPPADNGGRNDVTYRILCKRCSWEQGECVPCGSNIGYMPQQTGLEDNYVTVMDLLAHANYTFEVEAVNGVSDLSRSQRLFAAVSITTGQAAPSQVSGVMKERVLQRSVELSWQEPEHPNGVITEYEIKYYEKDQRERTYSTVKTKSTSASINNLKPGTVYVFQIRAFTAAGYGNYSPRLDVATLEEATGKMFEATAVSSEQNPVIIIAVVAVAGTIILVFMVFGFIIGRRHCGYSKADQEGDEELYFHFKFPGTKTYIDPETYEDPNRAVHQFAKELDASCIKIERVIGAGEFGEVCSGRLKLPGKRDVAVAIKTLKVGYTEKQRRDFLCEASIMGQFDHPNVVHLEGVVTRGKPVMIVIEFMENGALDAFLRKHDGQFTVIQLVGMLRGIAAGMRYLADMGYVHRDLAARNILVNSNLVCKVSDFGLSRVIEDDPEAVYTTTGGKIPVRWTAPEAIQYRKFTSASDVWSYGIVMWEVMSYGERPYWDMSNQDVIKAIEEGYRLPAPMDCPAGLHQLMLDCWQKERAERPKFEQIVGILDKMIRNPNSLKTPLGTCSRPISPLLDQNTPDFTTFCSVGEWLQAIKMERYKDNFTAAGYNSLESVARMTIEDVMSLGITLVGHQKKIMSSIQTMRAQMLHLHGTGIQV
Serine/threonine-protein kinase 10, sequence (O94804 whole entry): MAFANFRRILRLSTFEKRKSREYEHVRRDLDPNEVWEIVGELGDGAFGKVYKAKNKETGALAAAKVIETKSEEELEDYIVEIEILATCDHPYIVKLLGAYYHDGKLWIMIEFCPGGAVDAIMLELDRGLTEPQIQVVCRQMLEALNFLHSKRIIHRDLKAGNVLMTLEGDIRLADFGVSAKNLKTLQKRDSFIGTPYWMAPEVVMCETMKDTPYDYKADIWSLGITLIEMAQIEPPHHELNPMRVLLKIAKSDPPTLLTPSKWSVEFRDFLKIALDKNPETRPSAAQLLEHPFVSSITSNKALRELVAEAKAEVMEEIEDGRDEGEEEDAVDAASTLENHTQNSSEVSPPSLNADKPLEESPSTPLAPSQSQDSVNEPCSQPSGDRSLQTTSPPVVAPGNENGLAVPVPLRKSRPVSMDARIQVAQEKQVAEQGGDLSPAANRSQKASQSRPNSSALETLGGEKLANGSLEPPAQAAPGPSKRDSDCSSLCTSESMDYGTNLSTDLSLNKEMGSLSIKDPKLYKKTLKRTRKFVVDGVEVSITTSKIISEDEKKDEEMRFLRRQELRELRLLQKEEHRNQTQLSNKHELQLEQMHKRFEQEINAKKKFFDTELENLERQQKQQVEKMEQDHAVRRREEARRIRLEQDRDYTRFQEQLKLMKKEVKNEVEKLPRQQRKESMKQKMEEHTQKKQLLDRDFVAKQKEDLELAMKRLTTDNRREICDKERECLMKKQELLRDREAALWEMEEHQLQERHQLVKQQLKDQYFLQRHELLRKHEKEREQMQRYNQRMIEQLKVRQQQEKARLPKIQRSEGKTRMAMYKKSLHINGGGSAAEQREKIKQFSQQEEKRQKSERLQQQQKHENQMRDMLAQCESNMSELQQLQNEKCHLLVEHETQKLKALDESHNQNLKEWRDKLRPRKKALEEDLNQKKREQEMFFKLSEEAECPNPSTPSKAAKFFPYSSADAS
Serine/threonine-protein kinase 26, sequence (Q9P289 whole entry): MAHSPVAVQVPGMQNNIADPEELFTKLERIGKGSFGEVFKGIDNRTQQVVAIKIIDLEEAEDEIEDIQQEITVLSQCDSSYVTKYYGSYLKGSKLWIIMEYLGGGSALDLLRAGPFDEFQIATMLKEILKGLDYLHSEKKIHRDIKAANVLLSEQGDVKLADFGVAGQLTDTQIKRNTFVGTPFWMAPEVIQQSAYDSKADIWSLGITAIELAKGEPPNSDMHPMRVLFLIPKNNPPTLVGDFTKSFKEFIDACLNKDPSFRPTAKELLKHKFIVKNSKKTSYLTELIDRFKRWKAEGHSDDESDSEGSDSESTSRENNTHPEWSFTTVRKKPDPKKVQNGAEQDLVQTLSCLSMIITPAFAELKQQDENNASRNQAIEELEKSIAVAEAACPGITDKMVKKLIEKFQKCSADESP

Structure (SMILES) | pKd [1] | pKd [2] | pKd [3] | pKd [4] | pKd [5] | pKd [6] | pKd [7] | pKd (Ephrin type-A receptor 7) | pKd [8] | pKd [9] | pKd [10] | pKd [11] | pKd [12] | pKd [13] | pKd [14]
CCOc1cc2ncc(C#N)c(Nc3ccc(F)c(Cl)c3)c2cc1NC(=O)/C=C/CN(C)C [PELITINIB] | < 5.00 | < 5.00 | < 5.00 | < 5.00 | < 5.00 | < 5.00 | < 5.00 | < 5.00 | < 5.00 | < 5.00 | – | – | – | – | –
COCC(=O)NC/C=C/c1ccc2ncnc(Nc3ccc(Oc4ccc(C)nc4)c(C)c3)c2c1 [CP-724714] | < 5.00 | < 5.00 | < 5.00 | < 5.00 | < 5.00 | < 5.00 | < 5.00 | < 5.00 | < 5.00 | < 5.00 | < 5.00 | < 5.00 | < 5.00 | < 5.00 | < 5.00
NC(=O)c1ccc(-c2nc(-c3ccc4c(c3)OCO4)c(-c3ccccn3)[nH]2)cc1 [SB-431542] | < 5.00 | < 5.00 | < 5.00 | – | < 5.00 | < 5.00 | < 5.00 | < 5.00 | < 5.00 | < 5.00 | < 5.00 | < 5.00 | < 5.00 | < 5.00 | < 5.00
Nc1nc(Nc2ccc(S(N)(=O)=O)cc2)nn1C(=O)c1c(F)cccc1F [JNJ-7706621] | < 5.00 | – | < 5.00 | – | 5.35 | < 5.00 | – | 5.51 | – | – | – | – | – | < 5.00 | –
Oc1ccc(-c2nc(-c3ccncc3)c(-c3ccc(F)cc3)[nH]2)cc1 [SB-202190] | < 5.00 | < 5.00 | – | < 5.00 | < 5.00 | < 5.00 | < 5.00 | < 5.00 | < 5.00 | 5.62 | < 5.00 | < 5.00 | < 5.00 | < 5.00 | < 5.00
